Measured values as given in publication PMC12067093, “Discovery and optimisation of a covalent ligand for TRIM25 and its application to targeted protein ubiquitination” (Chemical Science, 2025).

Tests used:
E1 (His6-UBA1) = biological target: T1, E1 (His6-UBA1) (Mus musculus, UniProt Q02053); experiment: E1~Ub loading assay; assay type: biochemical; settings: E1 2 μM pre-treated with compound 100 μM for 30 min at RT; reducing and non-reducing conditions
T1 construct: made in house
T1 sequence (Q02053 1-1058): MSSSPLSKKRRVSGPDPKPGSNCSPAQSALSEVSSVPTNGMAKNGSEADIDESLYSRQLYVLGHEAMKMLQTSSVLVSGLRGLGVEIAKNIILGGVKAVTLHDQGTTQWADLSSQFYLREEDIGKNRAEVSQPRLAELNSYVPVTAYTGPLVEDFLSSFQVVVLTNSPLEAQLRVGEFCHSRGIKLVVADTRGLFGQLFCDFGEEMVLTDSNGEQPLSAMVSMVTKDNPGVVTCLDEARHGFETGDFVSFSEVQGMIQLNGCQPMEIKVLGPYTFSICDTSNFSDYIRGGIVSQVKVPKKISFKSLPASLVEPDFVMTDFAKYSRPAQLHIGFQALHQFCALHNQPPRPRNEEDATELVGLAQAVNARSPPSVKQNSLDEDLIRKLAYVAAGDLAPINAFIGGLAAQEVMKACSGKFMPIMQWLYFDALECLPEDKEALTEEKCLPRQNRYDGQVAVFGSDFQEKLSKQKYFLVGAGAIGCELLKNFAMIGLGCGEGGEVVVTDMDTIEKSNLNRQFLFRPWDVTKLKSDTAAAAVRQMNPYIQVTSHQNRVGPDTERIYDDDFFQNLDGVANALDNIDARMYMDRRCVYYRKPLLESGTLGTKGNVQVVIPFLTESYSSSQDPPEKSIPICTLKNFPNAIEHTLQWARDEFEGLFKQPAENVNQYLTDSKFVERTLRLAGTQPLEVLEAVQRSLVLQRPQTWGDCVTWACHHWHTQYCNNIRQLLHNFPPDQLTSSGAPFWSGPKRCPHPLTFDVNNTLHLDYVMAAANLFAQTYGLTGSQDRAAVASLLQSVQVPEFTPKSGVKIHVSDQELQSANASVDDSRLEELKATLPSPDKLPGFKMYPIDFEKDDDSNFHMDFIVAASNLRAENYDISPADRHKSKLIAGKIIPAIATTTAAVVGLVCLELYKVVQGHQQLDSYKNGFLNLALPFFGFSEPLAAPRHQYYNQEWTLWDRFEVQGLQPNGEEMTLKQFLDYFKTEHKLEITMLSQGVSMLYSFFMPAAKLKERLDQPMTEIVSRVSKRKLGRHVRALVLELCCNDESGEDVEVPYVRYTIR
Procedure: 2 Supplementary Figure 6 Further biochemical characterisation of purified
4 A) Schematic of auto-ubiquitination assay, with pre-labelled full-length TRIM25. Created in
5 BioRender. McPhie, K. (2025) https://BioRender.com/q86g447; B) Auto-ubiquitination time
7 µM) was incubated with compounds (50 µM) or DMSO (1%) for 16 h at 4 °C, before addition
8 of E1 (0.2 µM), UBCH5B (2 µM), Ub (50 µM), UbATTO (1 µM). The assay was initiated by the
9 addition of ATP, and performed for 60 min at 30 °C. Time point 0 was taken before the addition
10 of ATP. Samples were analysed by SDS-PAGE, with Coomassie staining and scanning at 700
11 nm wavelength (for ATTO emission).
12 of His10-TRIM25 (which has not been ubiquitinated) where % His10-TRIM25 (relative to time =
13 0 min) is plotted vs reaction time. Data are presented as n = 1; D) E1~Ub loading assay with
E1 (2 µM) was incubated with
15 compounds (100 µM) or DMSO (1%) for 30 min at RT, before addition of UBCH5B (2 µM) and
16 Ub (10 µM). The assay was initiated by the addition of ATP (1 mM), and performed for 5 min
17 at 30 °C. After 5 min, samples were treated with either loading dye, or loading dye with DTT,
18 and analysed by SDS-PAGE, with Coomassie staining; E) Cellular target identification for 11
19 (50 µM, left, and 10 µM, right, 4 h incubation at 37 °C in live THP-1 cells) using an […]

live THP-1 cells = experiment: IA-DTB competitive chemoproteomics in live THP-1 cells, proteome-wide off-targets; assay type: cell-based, 9606; settings: compound 50 μM, 4 h at 37 °C

| Structure (SMILES) | E1~Ub loading (E1 (His6-UBA1)) | number of other protein targets competed (live THP-1 cells) |
| --- | --- | --- |
| Cc1cc(C(=O)N2CCCN(C(=O)CCl)CC2)ccc1-c1ccccc1 [Compound 10] | not inhibited | 50 |
| CC1Cc2ccccc2N1C(=O)C1CCCN(C(=O)CCl)C1 (stereo not drawn) [Compound 11] | not inhibited |  |
